Source: patent publication US8158646B2, “Antifungal and antiparasitic indoloquinoline derivates” (Florida Agricultural and Mechanical University, priority 2006, dated 2012)
In brackets after ≈: the same amount, converted by molar mass. Where two headings read alike, the source gives them in different places. Marks after values point to notes of the source that are not given here.

Tests used:
[1] = test system: Aspergillus fumigatus ATCC 90906; experiment: Antimicrobial susceptibility testing, Af; type: cell-based; settings: ATCC90906, read-out: IC50 Af
Protocol: (§1) Compounds were evaluated in vitro against a panel of microorganisms, including Candida albicans ATCC 90028 (Ca), C. krusei ATCC 6258 (Ck), Cryptococcus neoformans ATCC 90113 (Cn), Staphylococcus aureus ATCC 29213 (Sa), methicillin-resistant S. aureus ATCC 43300 (MRSA), Pseudomonas aeruginosa ATCC 27853 (Pa), Aspergilllus fumigatus ATCC 90906 (Aj), and Mycobacterium intracellulare ATCC 23068 (Mi) as previously reported [Guoyi, M.; Khan, S.; Jacob, M. R; Tekwani, B. L.; Li, Z.; Pasco, D. S.; Walker, L. A.; Khan, 1. A.; Antimicrob Agents Chemother, 2004, 48, 4450-4452]. All organisms were obtained from the American Type Culture Collection (Manassas, Va.). Susceptibility testing was performed using a modified version of the NCCLS methods [a) National Committee for Clinical Laboratory Standards. 2000. Methods for dilution antimicrobial susceptibility tests for bacteria that grow aerobically. M7-A5. National Committee for Clinical Laboratory Standards, Wayne, Pa. b) National Committee for Clinical Laboratory Standards, 1997, Reference method for broth dilution antifungal susceptibility testing of yeasts. Approved standard M27-A. National Committee for Clinical Laboratory Standards, Wayne, Pa. c) National Committee for Clinical Laboratory Standards. 2000. Susceptibility testing of mycobacteria, nocardia, and other aerobic actinomycetes, 2nd ed. Tentative standard M24- T2. National Committee for Clinical Laboratory Standards, Wayne, Pa.] for all organisms except for M intracellulare, for which the modified Alamar blue procedure described by Franzblau et al [1998. J Clin Microbiol, 36, 362-366] was followed. Briefly, samples (dissolved in DMSO) were serially diluted by using 0.9% saline and transferred in duplicate to 96-well microplates. Microbial inocula were prepared after comparison of the absorbance (at 630 nm) of cell suspensions to the 0.5 McFarland standard and dilution of the suspensions in broth (Sabouraud dextrose and cation-adjusted Mueller-Hinton broth [Difco] for the fungi and bacteria, respectively, and 5% Alamar blue [BioSource international] in Middlebrook 7H9 broth with oleic acid-albumin-dextrose-catalase enrichment for M intracellulare) to afford recommended inoculum sizes. Microbial inocula were added to the samples to achieve a final volume of 200 μl and final sample concentrations starting with 100 μg/ml. Growth, solvent, and medium controls were included on each test plate. The plates were read at either 630 nm or excitation and emission wavelengths of 544 and 590 nm (for Mi) prior to and after incubation. Percent growth was calculated and plotted with the concentration tested to afford the concentration that inhibits 50% of growth (IC50). […]

C. krusei ATCC 6258 = experiment: Antimicrobial susceptibility testing, Ck; type: cell-based, Candida krusei; settings: Pichia kudriavzevii
Protocol: as §1, with “National Committee for Clinical Laboratory Standards, Wayne, Pa.] for all organisms except for M intracellulare, for which the modified Alamar blue procedure described by Franzblau et al [1998. J Clin Microbiol, 36, 362-366] was followed. Briefly, samples (dissolved in DMSO) were serially diluted by using 0.9% saline and transferred in duplicate to 96-well microplates.” left out, “Microbial inocula were added to the samples to achieve a final volume of 200 μl and final sample concentrations starting with 100 μg/ml. Growth, solvent, and medium controls were included on each test plate.” left out, “incubation.” for “incubation. Percent growth was calculated and plotted with the concentration tested to afford the concentration that inhibits 50% of growth (IC50).”

[2] = test system: methicillin-resistant S. aureus ATCC 43300; experiment: Antimicrobial susceptibility testing, MRSA; type: cell-based, Staphylococcus aureus; settings: read-out: IC50 MRSA
Protocol: as §1

[3] = test system: Mycobacterium intracellulare ATCC 23068; experiment: Modified Alamar blue procedure, Mi; type: cell-based; settings: ATCC23068, read-out: IC50 Mi
Protocol: as §1

[4] = test system: Plasmodium falciparum D6 Clone; experiment: Antimalarial testing, D6 clone; type: cell-based; settings: for IC50: Plasmodium falciparum; for SI (D6): SI = IC50 (vero cells)/IC50 (Pf)
Protocol: (§2) All organisms were obtained from the American Type Culture Collection (Manassas, Va.). Susceptibility testing was performed using a modified version of the NCCLS methods [a) National Committee for Clinical Laboratory Standards. 2000. Methods for dilution antimicrobial susceptibility tests for bacteria that grow aerobically. M7-A5. […] Approved standard M27-A. National Committee for Clinical Laboratory Standards, Wayne, Pa. c) National Committee for Clinical Laboratory Standards. 2000. Susceptibility testing of mycobacteria, nocardia, and other aerobic actinomycetes, 2nd ed. Tentative standard M24- T2. […] Briefly, samples (dissolved in DMSO) were serially diluted by using 0.9% saline and transferred in duplicate to 96-well microplates. Microbial inocula were prepared after comparison of the absorbance (at 630 nm) of cell suspensions to the 0.5 McFarland standard and dilution of the suspensions in broth (Sabouraud dextrose and cation-adjusted Mueller-Hinton broth [Difco] for the fungi and bacteria, respectively, and 5% Alamar blue [BioSource international] in Middlebrook 7H9 broth with oleic acid-albumin-dextrose-catalase enrichment for M intracellulare) to afford recommended inoculum sizes. Microbial inocula were added to the samples to achieve a final volume of 200 μl and final sample concentrations starting with 100 μg/ml. Growth, solvent, and medium controls were included on each test plate. […] Antimalarial and cytotoxicity testing were conducted in a similar manner as previously reported [a) Muhammad, 1.; Bedir, E.; Khan, S. I.; Tekwani, B. L.; Khan, I. A.; Takamatsu, S.; Pelletier, 1.; Walker, L. A. J Nat Prod.

[5] = test system: Plasmodium falciparum W2 Clone; experiment: Antimalarial testing, W2 clone; type: cell-based; settings: for IC50: Plasmodium falciparum; for SI (W2): SI = IC50 (vero cells)/IC50 (Pf)
Protocol: (§3) Compounds were evaluated in vitro against a panel of microorganisms, including Candida albicans ATCC 90028 (Ca), C. krusei ATCC 6258 (Ck), Cryptococcus neoformans ATCC 90113 (Cn), Staphylococcus aureus ATCC 29213 (Sa), methicillin-resistant S. aureus ATCC 43300 (MRSA), Pseudomonas aeruginosa ATCC 27853 (Pa), Aspergilllus fumigatus ATCC 90906 (Aj), and Mycobacterium intracellulare ATCC 23068 (Mi) as previously reported [Guoyi, M.; Khan, S.; Jacob, M. R; Tekwani, B. L.; Li, Z.; Pasco, D. S.; Walker, L. A.; Khan, 1. A.; Antimicrob Agents Chemother, 2004, 48, 4450-4452]. All organisms were obtained from the American Type Culture Collection (Manassas, Va.). Susceptibility testing was performed using a modified version of the NCCLS methods [a) National Committee for Clinical Laboratory Standards. 2000. Methods for dilution antimicrobial susceptibility tests for bacteria that grow aerobically. M7-A5. National Committee for Clinical Laboratory Standards, Wayne, Pa. b) National Committee for Clinical Laboratory Standards, 1997, Reference method for broth dilution antifungal susceptibility testing of yeasts. Approved standard M27-A. National Committee for Clinical Laboratory Standards, Wayne, Pa. c) National Committee for Clinical Laboratory Standards. 2000. Susceptibility testing of mycobacteria, nocardia, and other aerobic actinomycetes, 2nd ed. Tentative standard M24- T2. National Committee for Clinical Laboratory Standards, Wayne, Pa.] for all organisms except for M intracellulare, for which the modified Alamar blue procedure described by Franzblau et al [1998. J Clin Microbiol, 36, 362-366] was followed. Briefly, samples (dissolved in DMSO) were serially diluted by using 0.9% saline and transferred in duplicate to 96-well microplates. Microbial inocula were prepared after comparison of the absorbance (at 630 nm) of cell suspensions to the 0.5 McFarland standard and dilution of the suspensions in broth (Sabouraud dextrose and cation-adjusted Mueller-Hinton broth [Difco] for the fungi and bacteria, respectively, and 5% Alamar blue [BioSource international] in Middlebrook 7H9 broth with oleic acid-albumin-dextrose-catalase enrichment for M intracellulare) to afford recommended inoculum sizes. Microbial inocula were added to the samples to achieve a final volume of 200 μl and final sample concentrations starting with 100 μg/ml. Growth, solvent, and medium controls were included on each test plate. The plates were read at either 630 nm or excitation and emission wavelengths of 544 and 590 nm (for Mi) prior to and after incubation. Percent growth was calculated and plotted with the concentration tested to afford the concentration that inhibits 50% of growth (IC50). Antimalarial and cytotoxicity testing were conducted in a similar manner as previously reported [a) Muhammad, 1.; Bedir, E.; Khan, S. I.; Tekwani, B. L.; Khan, I. A.; Takamatsu, S.; Pelletier, 1.; Walker, L. A. J Nat Prod. 2004, 67, 772-7. b) Muhammad, 1.; Dunbar, D. C.; Khan, S. 1.; Tekwani, B. L.; Bedir, E.; Takamatsu, S.; Ferreira, D, Walker L A., J Nat Prod. 2003, 66, 962-7].

Vero cells = experiment: Cytotoxicity to mammalian cells (Vero); type: cell-based
Protocol: as §2

[6] = test system: Cryptococcus neoformans ATCC 90113; experiment: Antifungal susceptibility testing (modified NCCLS), Cn; type: cell-based; settings: for IC50 Cn: NA not defined in Table 1
Protocol: as §3

[7] = test system: Candida albicans ATCC 90028; experiment: Antifungal susceptibility testing (modified NCCLS), Ca; type: cell-based; settings: for IC50 Ca: NA not defined in Table 1
Protocol: as §3

[8] = test system: Pseudomonas aeruginosa ATCC 27853; experiment: Antimicrobial susceptibility testing, Pa; type: cell-based; settings: ATCC27853, NA = Not active up to 20 μg/ml
Protocol: (§4) Compounds were evaluated in vitro against a panel of microorganisms, including Candida albicans ATCC 90028 (Ca), C. krusei ATCC 6258 (Ck), Cryptococcus neoformans ATCC 90113 (Cn), Staphylococcus aureus ATCC 29213 (Sa), methicillin-resistant S. aureus ATCC 43300 (MRSA), Pseudomonas aeruginosa ATCC 27853 (Pa), Aspergilllus fumigatus ATCC 90906 (Aj), and Mycobacterium intracellulare ATCC 23068 (Mi) as previously reported [Guoyi, M.; Khan, S.; Jacob, M. R; Tekwani, B. L.; Li, Z.; Pasco, D. S.; Walker, L. A.; Khan, 1. A.; Antimicrob Agents Chemother, 2004, 48, 4450-4452]. All organisms were obtained from the American Type Culture Collection (Manassas, Va.). Susceptibility testing was performed using a modified version of the NCCLS methods [a) National Committee for Clinical Laboratory Standards. 2000. […] Microbial inocula were prepared after comparison of the absorbance (at 630 nm) of cell suspensions to the 0.5 McFarland standard and dilution of the suspensions in broth (Sabouraud dextrose and cation-adjusted Mueller-Hinton broth [Difco] for the fungi and bacteria, respectively, and 5% Alamar blue [BioSource international] in Middlebrook 7H9 broth with oleic acid-albumin-dextrose-catalase enrichment for M intracellulare) to afford recommended inoculum sizes. […] The plates were read at either 630 nm or excitation and emission wavelengths of 544 and 590 nm (for Mi) prior to and after incubation. […]

[9] = test system: Staphylococcus aureus ATCC 29213; experiment: Antimicrobial susceptibility testing, Sa; type: cell-based; settings: ATCC29213
Protocol: as §4

[10] = ATCC90113, NA not defined in Table 1, read-out: IC50 Cn
[11] = ATCC90028, NA not defined in Table 1, read-out: IC50 Ca
[12] = Methicillin-Resistant Staphylococcus aureus
[13] = D6 Clone, read-out: Plasmodium falciparum IC50 Pf (D6)
[14] = W2 Clone, NA = Not active up to 20 μg/ml, read-out: Plasmodium falciparum IC50 Pf (W2)

| Compound | IC50 [1] | IC50 [3] | SI (D6) ([4]; D6 Clone) | SI (W2) ([5]; W2 Clone) | IC50 Cn [6] | IC50 Ca [7] | IC50 [6, 10] | IC50 [7, 11] | IC50 [2, 12] | IC50 [4, 13] | IC50 [5, 14] | Cytotoxicity (Vero) TC50 (Vero cells; African green monkey) | no cytotoxicity up to (concentration) (Vero cells; African green monkey) | further results |
| --- | --- | --- | --- | --- | --- | --- | --- | --- | --- | --- | --- | --- | --- | --- |
| Cn1c2c3ccccc3nc-2cc2ccccc21 [Compound 2b, cryptolepine, reference compound] | > 20 µg/mL | 15 µg/mL (≈ 64.6 µM) | 54 | 18.5 | – | – | – | – | – | – | – | – | – | IC50 (C. krusei ATCC 6258; ATCC6258, read-out: IC50 Ck): 4.5 µg/mL (≈ 19.4 µM); IC50 ([2]; Staphylococcus aureus): 20 µg/mL (≈ 86.1 µM); IC50 ([4]; D6, read-out: Plasmodium falciparum IC50 Pf (D6)): 0.044 µg/mL (≈ 0.189 µM); IC50 ([5]; W2, read-out: Plasmodium falciparum IC50 Pf (W2)): 0.13 µg/mL (≈ 0.56 µM); Cytotoxicity (Vero) TC50 (Vero cells; Vero cells, NC = No Cytotoxicity observed up to 5 μg/ml): 2.4 µg/mL |
| Cn1c2ccccc2c2c1cc1ccccc1[n+]2CCCCCc1ccccc1.[Br-] [Compound 7b] | – | – | – | – | 4.3 µg/mL | 4.3 µg/mL | – | – | – | – | – | – | – | – |
| C[n+]1c(-c2ccccc2)ccc2ccccc21 [Compound 8a] | – | – | – | – | – | – | – | – | – | – | – | – | – | IC50 ([6]; ATCC90113, read-out: IC50 Cn): 43 µg/mL; IC50 ([7]; ATCC90028, read-out: IC50 Ca): 180 µg/mL; melting point: 196 to 198 °C |
| c1ccc2c(c1)cc1[nH]c3ccccc3c1[n+]2CCCCC[n+]1c2ccccc2cc2[nH]c3ccccc3c21 [Compound 10] | 20 µg/mL | 7 µg/mL | >18.3 | >23.8 | – | – | 1.5 µg/mL | > 50 µg/mL | 3 µg/mL | 1.3 µg/mL | 1 µg/mL | >23.8 µg/mL | > 23.8 µg/mL | IC50 [8]: 1.5 µg/mL; IC50 [9]: 3 µg/mL |
| C[n+]1c2ccccc2cc2c1c1ccccc1n2CCCCCn1c2ccccc2c2c1cc1ccccc1[n+]2C [Compound 12] | 20 µg/mL | 15 µg/mL | >91.5 | >170 | – | – | 2 µg/mL | 2 µg/mL | 6 µg/mL | 0.26 µg/mL | 0.14 µg/mL | >23.8 µg/mL | > 23.8 µg/mL | IC50 (C. krusei ATCC 6258; ATCC6258, Candida krusei, read-out: IC50 Ck): 15 µg/mL |
| cryptolepine [Compound 2b, reference compound] | – | – | – | – | 15.6^d μg/ml | 0.8 to 180 µg/mL | – | – | – | – | – | – | – | – |
